Results: patent US20040023884A1, “Biologically active peptides from functional domains of bactericidal/permeability-increasing protein and uses thereof” (priority 1993, published 2004)
Ends that are not written are not given here.

Key:
[1] = system: E. coli 0113 LPS; assay: Limulus Amoebocyte Lysate (LAL) inhibition assay; format: biochemical
How it was run: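 BPI proteolytic fragments incubated with E. coli 0113 LPS (4 ng/mL final) for 3 h at 37 °C, then diluted in D-PBS to 200 pg/mL LPS for chromogenic LAL. Lysate 25 min, substrate 20–30 min at room temperature, acetic acid stop; OD405 expressed as percent LPS inhibition.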

[2] = system: LPS-stimulated TNF production in THP-1 cells; assay: LPS neutralization by TNF cellular toxicity assay (THP-1 / L929 cells); format: cell-based, human; conditions: 5 ng/mL LPS
Source text: A screening assay for LPS neutralization was developed using a tumor necrosis factor (TNF) cellular toxicity assay. A human monocytic cell line (THP-1; accession number TIB202, American Type Culture Collection, Rockville, Md.) grown in media supplemented with Vitamin D produce TNF upon stimulation with LPS in a dose-dependent fashion. Mouse fibroblasts (L929 cells; ATCC No.: CCL1) are sensitive to TNF-mediated cell killing, and this cell killing is also dose-dependent. Thus, the extent of cell killing of L929 cells provides a sensitive assay for the degree of TNF induction in THP-1 cells, which in turn is a sensitive indicator of the amount of free LPS in contact with the THP-1 cells. LPS binding and neutralization by BPI functional domain peptides or rBPI23 reduces the amount of free LPS in contact with THP-1 cells, which reduces the amount of TNF produced, which in turn reduces the amount of L929 cell killing in a standardized assay. Thus, the following assay provides a sensitive method for assessing the LPS binding and neutralization capacity of the BPI functional domain peptides of this invention.
THP-1 cells were grown in RPMI media (GIBCO, Long Island, N.Y.) supplemented with 10% FCS and Vitamin D in spinner culture for 3 days to a density of about 150,000 cells/mL. Cells were then plated in a round-bottomed 96-well culture plate at a density of 100,000 cells/well and incubated in RPMI media without Vitamin D or FCS in the presence of 5 ng/mL E. coli 01113 LPS for 6 hr at 37° C. Experimental control wells also contained varying amounts of rBPI23 or BPI functional domain peptides, in concentrations varying from about 0.1 μg/mL to about 100 μg/mL. After this incubation, the plates were centrifuged at about 600×g to pellet the cells, and 50 μL of the supernatant were added to a 96-well flat bottomed culture dish prepared in parallel with 50,000 L929 cells per well in 50 μL RPMI/10% FCS.
L929 cells were prepared by monolayer growth in RPMI/10% FCS media to a density of about 1 million cells per dish, then split 1:2 on the day before the experiment and allowed to grow overnight to about 70% confluence on the day of the experiment. Actinomycin D was added to the 70% confluent culture to a final concentration of 1 μg/mL 20 min prior to plating in 96-well plates. L929 cell plates were incubated in the presence of the THP-1 supernatant for about 16 hr (overnight) at 37° C. under standard conditions of mammalian cell growth. To each well was then added […] of a solution prepared by diluting 100 μL of phenazine methylsulfonate in 2 mL CellTitre 96™ AQueous solution (Promega, Madison, Wis.), containing 3-[(4,5-dimethyl)-thiozol-2-yl]-5-(3-carboxymethoxyphenyl)-2-(4-sulfonyl)-2H-tetrazolium (inner salt). The cultures were allowed to incubate for 2-4 hr at 37° C. and then analyzed spectrophotometrically to determine the optical absorbance at 490 nm (A490). Experimental results were evaluated relative to a semilog standard curve prepared with known amounts of TNF, varying from about 10 ng/mL to about […].

[3] = system: Klebsiella pneumoniae; assay: Radial diffusion bactericidal assay, Klebsiella pneumoniae; format: cell-based
[4] = system: E. coli O75; assay: Radial diffusion bactericidal assay, E. coli O75; format: cell-based; conditions: FIG. 11d; up to about 2000 pmol
[5] = system: E. coli strain 07-K1; assay: Radial diffusion bactericidal assay, E. coli 07-K1; format: cell-based; conditions: FIG. 10c
Protocol: BPI proteolytic fragments produced according to Example 1 were screened for bactericidal effects using rough mutant E. coli J5 bacteria in a radial diffusion assay. Specifically, an overnight culture of E. coli J5 was diluted 1:50 into fresh tryptic soy broth and incubated for 3 hours at 37° C. to attain log phase growth of the culture. Bacteria were then pelleted at 3,000 rpm for 5 minutes in a Sorvall RT6000B centrifuge (Sorvall Instruments, Newton, Conn.). 5 mL of 10 mM sodium phosphate buffer (pH 7.4) was added and the preparation was re-pelleted. […] The bacteria were diluted to 4×10^6 CFU/mL in 10 mL of molten underlayer agarose (at approximately 45° C.) and inverted repeatedly to mix in 15 mL polypropylene tubes conventionally used for this purpose.
The entire contents of such tubes were then poured into a level square petri dish and distributed evenly by rocking the dish side-to-side. […] A series of wells were then punched into the hardened agarose using a sterile 3 mm punch attached to a vacuum apparatus. The punch was sterilized with 100% alcohol and allowed to air dry prior to use to avoid contaminating the bacterial culture.
5 or 10 μL of each of the BPI fragments were carefully pipetted into each well. As a negative control, dilution buffer (pH 8.3) was added to a separate well, and rBPI23 at concentrations of 5 μg/mL and 1 μg/mL were also added as positive controls. Each plate was incubated at 37° C. for 3 hours, and then 10 mL of molten overlayer agarose (at approximately 45° C.) was added into the level petri dish, allowed to harden and incubated overnight at 37° C. […] The bacterial zones were measured with a micrometer.
Additional experiments were performed using various other bacteria as target cells to examine the range of bactericidal killing of these BPI functional domain peptides.

[6] = FIG. 11c, up to about 2000 pmol

Row | Substance | LAL / LPS inhibition activity (in words) [1] | IC50 (LPS-stimulated TNF production, L929 cell killing) [2] [µg/mL] | bactericidal activity (in words) [3, 6] | bactericidal activity (in words) ([3]; FIG. 10d) | bactericidal activity (in words) [4] | bactericidal activity (in words) [5]
1 | IKISGKWKAQKRFLK [BPI.2] | no significant LPS inhibition activity | – | – | – | – | –
2 | KSKVGWLIQLFHKK-NH2 (C-terminus assumed) [BPI.13] | – | 20 | showed bactericidal activity | low levels of activity | showed bactericidal activity | low levels of bactericidal activity
3 | KSKVGWLIQLFHKKKSKVGWLIQLFHKK-NH2 (C-terminus assumed) [BPI.29] | – | 2 to 3 | – | moderate levels of activity | – | moderate bactericidal activity
4 | KWKAAARFLKKWKAAARFLK [BPI.48] | – | 1 | – | – | – | –
5 | KWKAQKRFLKKSKVGWLIQLFHKK-NH2 (C-terminus assumed) [BPI.30] | – | 6 to 7 | showed bactericidal activity | highest amount of bactericidal activity | showed bactericidal activity | high levels of bactericidal activity
6 | KWKAQKRFLKKWKAQKRFLK-NH2 (C-terminus assumed) [BPI.7] | significant LPS inhibition properties | 30 | – | low levels of activity | – | high levels of bactericidal activity
7 | NVGLKFSISNANIKISGKWKAQKRFLK [BPI.3] | moderate LPS inhibition activity | – | – | – | – | –
